What was measured:
jack bean urease = jack bean urease (Canavalia ensiformis, UniProt P07374); experiment: biochemical
Method: Urease is an enzyme (jack bean urease) that catalyzes the hydrolysis of urea into carbon dioxide and ammonia. The production of ammonia was measured by the indophenol method and used to determine the urease inhibitory activity[57],[58]. The percentage remaining activity was calculated from the formula % Remaining Activity = [(ODtest)/(ODcontrol) × 100]. Thiourea was used as a standard inhibitor. To calculate IC50 values, different concentrations of synthesized compounds and standards were assayed at the same reaction conditions.

Sequence of jack bean urease (P07374 whole entry, looked up): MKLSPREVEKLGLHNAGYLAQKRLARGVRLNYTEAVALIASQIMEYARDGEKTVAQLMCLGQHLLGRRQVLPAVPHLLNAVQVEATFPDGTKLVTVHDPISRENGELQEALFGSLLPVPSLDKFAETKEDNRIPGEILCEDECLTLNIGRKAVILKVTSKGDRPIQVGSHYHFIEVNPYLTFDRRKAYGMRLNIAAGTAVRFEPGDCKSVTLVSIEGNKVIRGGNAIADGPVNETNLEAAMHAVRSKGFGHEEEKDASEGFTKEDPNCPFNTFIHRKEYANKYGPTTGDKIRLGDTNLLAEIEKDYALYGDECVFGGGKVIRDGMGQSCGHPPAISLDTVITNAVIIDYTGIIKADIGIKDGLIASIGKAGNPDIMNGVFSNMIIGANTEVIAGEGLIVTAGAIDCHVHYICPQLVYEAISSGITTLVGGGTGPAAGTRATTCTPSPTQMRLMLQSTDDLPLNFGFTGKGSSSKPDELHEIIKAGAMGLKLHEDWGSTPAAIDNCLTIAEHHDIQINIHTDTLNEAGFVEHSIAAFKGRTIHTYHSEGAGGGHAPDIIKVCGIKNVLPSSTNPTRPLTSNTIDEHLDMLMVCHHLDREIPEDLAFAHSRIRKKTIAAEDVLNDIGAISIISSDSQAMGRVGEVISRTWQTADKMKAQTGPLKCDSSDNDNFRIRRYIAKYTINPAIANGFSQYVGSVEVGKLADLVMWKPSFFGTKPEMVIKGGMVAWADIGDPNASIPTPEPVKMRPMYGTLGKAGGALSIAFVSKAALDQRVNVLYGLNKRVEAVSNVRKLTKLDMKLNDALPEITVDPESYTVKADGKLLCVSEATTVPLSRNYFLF

Row | SMILES | IC50 (jack bean urease) [µM] | melting point [°C]
1 | Cc1ccc(Cl)c(S(=O)(=O)Nc2nnc(-c3ccc(C(c4c[nH]c5ccc(Br)cc45)c4c[nH]c5ccc(Br)cc45)cc3)s2)c1 [Compound 12, N-(5-(4-(bis(5-bromo-1H-indol-3-yl)methyl)phenyl)-1,3,4-thiadiazol-2-yl)-2-chloro-5-methylbenzenesulfonamide] | 8.5 ± 0.3 | 301 to 302
2 | O=[N+]([O-])c1ccc(S(=O)(=O)Nc2nnc(-c3ccc(C(c4c[nH]c5ccc(Br)cc45)c4c[nH]c5ccc(Br)cc45)cc3)s2)cc1Cl [Compound 9, N-(5-(4-(bis(5-bromo-1H-indol-3-yl)methyl)phenyl)-1,3,4-thiadiazol-2-yl)-3-chloro-4-nitrobenzenesulfonamide] | 1.1 ± 0.01 | 318 to 319
3 | COc1ccc(Br)c(S(=O)(=O)Nc2nnc(-c3ccc(C(c4c[nH]c5ccc(Br)cc45)c4c[nH]c5ccc(Br)cc45)cc3)s2)c1 [Compound 14, N-(5-(4-(bis(5-bromo-1H-indol-3-yl)methyl)phenyl)-1,3,4-thiadiazol-2-yl)-2-bromo-5-methoxybenzenesulfonamide] | 19.8 ± 0.8 | 309 to 310
4 | Cc1ccccc1S(=O)(=O)Nc1nnc(-c2ccc(C(c3c[nH]c4ccc(Br)cc34)c3c[nH]c4ccc(Br)cc34)cc2)s1 [Compound 16, N-(5-(4-(bis(5-bromo-1H-indol-3-yl)methyl)phenyl)-1,3,4-thiadiazol-2-yl)-2-methylbenzenesulfonamide] | 23.8 ± 1 | 291 to 292
5 | COc1ccc(O)c(S(=O)(=O)Nc2nnc(-c3ccc(C(c4c[nH]c5ccc(Br)cc45)c4c[nH]c5ccc(Br)cc45)cc3)s2)c1 [Compound 4, N-(5-(4-(bis(5-bromo-1H-indol-3-yl)methyl)phenyl)-1,3,4-thiadiazol-2-yl)-2-hydroxy-5-methoxybenzenesulfonamide] | 2.2 ± 0.1 | 
6 | O=S(=O)(Nc1nnc(-c2ccc(C(c3c[nH]c4ccc(Br)cc34)c3c[nH]c4ccc(Br)cc34)cc2)s1)c1ccccc1 [Compound 1, N-(5-(4-(bis(5-bromo-1H-indol-3-yl)methyl)phenyl)-1,3,4-thiadiazol-2-yl)benzenesulfonamide] | 13.2 ± 0.3 | 301 to 302
7 | O=S(=O)(Nc1nnc(-c2ccc(C(c3c[nH]c4ccc(Br)cc34)c3c[nH]c4ccc(Br)cc34)cc2)s1)c1ccc(Cl)c(Cl)c1 [Compound 10, N-(5-(4-(bis(5-bromo-1H-indol-3-yl)methyl)phenyl)-1,3,4-thiadiazol-2-yl)-3,4-dichlorobenzenesulfonamide] | 1.6 ± 0.01 | 302 to 303
8 | O=S(=O)(Nc1nnc(-c2ccc(C(c3c[nH]c4ccc(Br)cc34)c3c[nH]c4ccc(Br)cc34)cc2)s1)c1cc(Cl)c(Cl)cc1Cl [Compound 6, N-(5-(4-(bis(5-bromo-1H-indol-3-yl)methyl)phenyl)-1,3,4-thiadiazol-2-yl)-2,4,5-trichlorobenzenesulfonamide] | 0.7 ± 0.01 | 299 to 300
9 | O=[N+]([O-])c1ccc(S(=O)(=O)Nc2nnc(-c3ccc(C(c4c[nH]c5ccc(Br)cc45)c4c[nH]c5ccc(Br)cc45)cc3)s2)cc1 [Compound 2, N-(5-(4-(bis(5-bromo-1H-indol-3-yl)methyl)phenyl)-1,3,4-thiadiazol-2-yl)-4-nitrobenzenesulfonamide] | 1.8 ± 0.01 | 312 to 313
10 | Cc1ccc(S(=O)(=O)Nc2nnc(-c3ccc(C(c4c[nH]c5ccc(Br)cc45)c4c[nH]c5ccc(Br)cc45)cc3)s2)cc1 [Compound 18, N-(5-(4-(bis(5-bromo-1H-indol-3-yl)methyl)phenyl)-1,3,4-thiadiazol-2-yl)-4-methylbenzenesulfonamide] | 20.4 ± 1.2 | 285 to 286
11 | O=[N+]([O-])c1ccc(S(=O)(=O)Nc2nnc(-c3ccc(C(c4c[nH]c5ccc(Br)cc45)c4c[nH]c5ccc(Br)cc45)cc3)s2)c([N+](=O)[O-])c1 [Compound 8, N-(5-(4-(bis(5-bromo-1H-indol-3-yl)methyl)phenyl)-1,3,4-thiadiazol-2-yl)-2,4-dinitrobenzenesulfonamide] | 0.5 ± 0.01 | 
12 | O=S(=O)(Nc1nnc(-c2ccc(C(c3c[nH]c4ccc(Br)cc34)c3c[nH]c4ccc(Br)cc34)cc2)s1)c1ccc2ccccc2c1 [Compound 11, N-(5-(4-(bis(5-bromo-1H-indol-3-yl)methyl)phenyl)-1,3,4-thiadiazol-2-yl)naphthalene-2-sulfonamide] | 33.2 ± 1.2 | 313 to 314
13 | O=[N+]([O-])c1ccccc1S(=O)(=O)Nc1nnc(-c2ccc(C(c3c[nH]c4ccc(Br)cc34)c3c[nH]c4ccc(Br)cc34)cc2)s1 [Compound 3, N-(5-(4-(bis(5-bromo-1H-indol-3-yl)methyl)phenyl)-1,3,4-thiadiazol-2-yl)-2-nitrobenzenesulfonamide] | 1.1 ± 0.01 | 314 to 315
14 | Cc1ccc([N+](=O)[O-])c(S(=O)(=O)Nc2nnc(-c3ccc(C(c4c[nH]c5ccc(Br)cc45)c4c[nH]c5ccc(Br)cc45)cc3)s2)c1 [Compound 13, N-(5-(4-(bis(5-bromo-1H-indol-3-yl)methyl)phenyl)-1,3,4-thiadiazol-2-yl)-5 methyl-2-nitrobenzenesulfonamide] | 5.1 ± 0.1 | 312 to 313
15 | COc1ccc(Cl)cc1S(=O)(=O)Nc1nnc(-c2ccc(C(c3c[nH]c4ccc(Br)cc34)c3c[nH]c4ccc(Br)cc34)cc2)s1 [Compound 5, N-(5-(4-(bis(5-bromo-1H-indol-3-yl)methyl)phenyl)-1,3,4-thiadiazol-2-yl)-5-chloro-2-methoxybenzenesulfonamide] | 7.3 ± 0.1 | 315 to 316
16 | Cc1cccc(S(=O)(=O)Nc2nnc(-c3ccc(C(c4c[nH]c5ccc(Br)cc45)c4c[nH]c5ccc(Br)cc45)cc3)s2)c1 [Compound 17, N-(5-(4-(bis(5-bromo-1H-indol-3-yl)methyl)phenyl)-1,3,4-thiadiazol-2-yl)-3-methylbenzenesulfonamide] | 28.6 ± 1.2 | 289 to 290
17 | O=S(=O)(Nc1nnc(-c2ccc(C(c3c[nH]c4ccc(Br)cc34)c3c[nH]c4ccc(Br)cc34)cc2)s1)c1ccc(Cl)cc1Cl [Compound 7, N-(5-(4-(bis(5-bromo-1H-indol-3-yl)methyl)phenyl)-1,3,4-thiadiazol-2-yl)-2,4-dichlorobenzenesulfonamide] | 2.3 ± 0.1 | 
18 | COc1ccc([N+](=O)[O-])c(S(=O)(=O)Nc2nnc(-c3ccc(C(c4c[nH]c5ccc(Br)cc45)c4c[nH]c5ccc(Br)cc45)cc3)s2)c1 [Compound 15, N-(5-(4-(bis(5-bromo-1H-indol-3-yl)methyl)phenyl)-1,3,4-thiadiazol-2-yl)-5-methoxy-2-nitrobenzenesulfonamide] | 3.9 ± 0.1 | 308 to 309

Source: article PMC7224224, “Synthesis of diindolylmethane (DIM) bearing thiadiazole derivatives as a potent urease inhibitor” (Scientific Reports, 2020)
